For 29 compounds, IC50 results are on record in US20240067655A1 (NEURON23, INC., priority 2020, published 2024).

Structures are written as SMILES.

By IC50 is commonly meant the concentration needed to halve the response being measured.

T1 sequence (Q5S007 1879-2138 limits assumed): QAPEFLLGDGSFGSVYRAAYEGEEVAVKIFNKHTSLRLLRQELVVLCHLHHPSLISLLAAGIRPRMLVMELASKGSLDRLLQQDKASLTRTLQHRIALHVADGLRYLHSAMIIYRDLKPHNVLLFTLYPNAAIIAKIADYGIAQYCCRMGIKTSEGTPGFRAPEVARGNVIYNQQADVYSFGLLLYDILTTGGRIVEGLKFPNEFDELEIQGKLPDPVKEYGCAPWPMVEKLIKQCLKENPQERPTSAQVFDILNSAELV

This assay concerns the target T1, wt human LRRK2, catalytic site (Homo sapiens, UniProt Q5S007).
T1 construct: wt human LRRK2, catalytic site; purchased ThermoFisher/USA
Nature of the assay: TR-FRET LanthaScreen Tb Kinase Activity Assay (Example 71). In kind it is biochemical. As to conditions: compounds of Table 4, 38 uM ATP, method names only wt human LRRK2, read-out: IC50, Inhibitory Activity Toward LRRK2 (Wt) and LRRK2 (G2019). As to the method: The compounds in Table 4 were tested for their inhibitory effect on LRRK2 kinases according to the following procedures.
The basic protocol for TR-FRET LanthaScreen Tb Kinase Activity Assay inhibitor studies were performed as follows. LanthaScreen Kinase Activity Assays (ThermoFisher/USA) to evaluate inhibitors were performed by addition of 100 nl of test compound in corresponding DMSO dilutions/5 μl of kinase/fluorescein-ERM(LRRKtide) peptide mixture, 5 μl of ATP into 384 well small volume plates. After incubation for 120 minutes at room temperature, the detection reagents containing Tb-anti-pLRRKtide antibody were added to monitor phosphrylation level of peptide. Then, after 60 min minutes incubation at room temperature plates were read in Envision. Data analysis of emission ratios was according to LanthaScreen Tb Kinase Activity Assay protocol.
Kinase and assay components were adjusted to final concentrations according to the kit protocol. For LRRK2: 2 nM wt human LRRK2, catalytic site, catalytic site (ThermoFisher/USA), 400 nM peptide, 38 uM ATP in 1× Kinase Buffer A.
Basic protocol for TR-FRET LanthaScreen Tb Kinase Activity Assay inhibitor studies involved two steps:
Enzymatic step: Addition of 100 nl of test compound in corresponding DMSO dilutions, 5 μl of kinase/substrate mixture, 5 μl of ATP into 384 well small volume plates. Incubation for 120 minutes at room temperature.
Detection step: Addition of 10 μl EDTA & antibody, read plate after 60 minutes. Data analysis of emission ratios according to KinEASE assay protocol.
(In TR-FRET formats the signal depends on donor and acceptor labels being close together.)
Consider `C[C@@H]1CCN2C(c3c(F)cccc3F)=Nc3cn[nH]c3-c3cnn1c32` (single isomer, unassigned) [Compound 346], for which the IC50 lay in the range of 10 to 100 nM. The figure for `C[C@H]1CCN2C(c3c(F)cccc3F)=Nc3cn[nH]c3-c3cnn1c32` (single isomer, unassigned) [Compound 347] is below 10 nM; for `C[C@@H]1CN2C(c3c(F)cccc3F)=Nc3cn[nH]c3-c3cnn(c32)C1` (single isomer, unassigned) [Compound 349] it is below 10 nM; for `C[C@H]1CN2C(c3c(F)cccc3F)=Nc3cn[nH]c3-c3cnn(c32)C1` (single isomer, unassigned) [Compound 350] it is 10 to 100 nM. The figure for `Cc1cccc(F)c1C1=Nc2cn[nH]c2-c2cnn3c2N1CCC3` [Compound 340, 9-(2-fluoro-6-methylphenyl)-3,6,7,8-tetrahydro-2,3,5,5a,8a,10 hexaazabenzo[cd]cyclopenta[h]azulene] is below 10 nM; for `Fc1cccc(Cl)c1C1=Nc2cn[nH]c2-c2cnn3c2N1CCC3` [Compound 341, 9-(2-chloro-6-fluorophenyl)-3,6,7,8-tetrahydro-2,3,5,5a,8a,10-hexaazabenzo[cd]cyclopenta[h]azulene] it is below 10 nM. The same measure for `Clc1cccc(Cl)c1C1=Nc2cn[nH]c2-c2cnn3c2N1CCC3` [Compound 342, 9-(2,6-dichlorophenyl)-3,6,7,8-tetrahydro-2,3,5,5a,8a,10-hexaazabenzo[cd]cyclopenta[h]azulene]: 10 to 100 nM; for `Cc1cc(F)c(C2=Nc3cn[nH]c3-c3cnn4c3N2CCC4)c(F)c1` [Compound 343, 9-(2,6-difluoro-4-methylphenyl)-3,6,7,8-tetrahydro-2,3,5,5a,8a,10 hexaazabenzo[cd]cyclopenta[h]azulene]: below 10 nM. Take `Fc1cccc(F)c1C1=Nc2cn[nH]c2-c2cnn3c2N1CCCC3` [Compound 344, 10-(2,6-difluorophenyl)-6,7,8,9-tetrahydro-3H-2,3,5,5a,9a,11-hexaazadicyclopenta[b,kl]heptalene]: the IC50 lay within 10 to 100 nM. The figure for `CC1CCN2C(c3c(F)cccc3F)=Nc3cn[nH]c3-c3cnn1c32` (centres unmarked) [Compound 345, 9-(2,6-difluorophenyl)-6-methyl-3,6,7,8-tetrahydro-2,3,5,5a,8a,10-hexaazabenzo[cd]cyclopenta[h]azulene] is below 10 nM; for `CC1CN2C(c3c(F)cccc3F)=Nc3cn[nH]c3-c3cnn(c32)C1` (centres unmarked) [Compound 348, 9-(2,6-difluorophenyl)-7-methyl-2,6,7,8-tetrahydro-2,3,5,5a,8a,10-hexaazabenzo[cd]cyclopenta[h]azulene] it is below 10 nM; for `CC1CCn2ncc3c2N1C(c1c(F)cccc1F)=Nc1cn[nH]c1-3` (centres unmarked) [Compound 351, 9-(2,6-difluorophenyl)-8-methyl-3,6,7,8-tetrahydro-2,3,5,5a,8a,10-hexaazabenzo[cd]cyclopenta[h]azulene] it is 10 to 100 nM.

As for `Cc1nc2c3n1CCCN3C(c1c(F)cccc1F)=Nc1cn[nH]c1-2` [Compound 352], the IC50 was above 1000 nM. The same measure for `Fc1ccc(Br)c(F)c1C1=Nc2cn[nH]c2-c2cnn3c2N1CCC3` [Compound 353, 9-(3-bromo-2,6-difluorophenyl)-3,6,7,8-tetrahydro-2,3,5,5a,8a,10-hexaazabenzo[cd]cyclopenta[h]azulene]: below 10 nM. The figure for `Cc1ccc(F)c(C2=Nc3cn[nH]c3-c3cnn4c3N2CCC4)c1F` [Compound 354, 9-(2,6-difluoro-3-methylphenyl)-3,6,7,8-tetrahydro-2,3,5,5a,8a,10 Hexaazabenzo[cd]cyclopenta[h]azulene] is below 10 nM; for `Fc1ccc(Br)c(Cl)c1C1=Nc2cn[nH]c2-c2cnn3c2N1CCC3` [Compound 355, 8-(3-bromo-2-chloro-6-fluoro-phenyl)-3,4,7,9,13,14-hexazatetracyclo-[7.6.1.02,6.013,16]hexadeca-1(16),2(6),4,7,14-pentaene] it is below 10 nM. The same measure for `Fc1cccc(C2CC2)c1C1=Nc2cn[nH]c2-c2cnn3c2N1CCC3` [Compound 356, 9-(2-cyclopropyl-6-fluorophenyl)-3,6,7,8-tetrahydro-2,3,5,5a,8a,10-hexaazabenzo[cd]cyclopenta[h]azulene]: 10 to 100 nM; for `N#Cc1cc(F)c(C2=Nc3cn[nH]c3-c3cnn4c3N2CCC4)c(F)c1` [Compound 358]: 10 to 100 nM; for `OCc1cc(F)c(C2=Nc3cn[nH]c3-c3cnn4c3N2CCC4)c(F)c1` [Compound 359, (3,5-difluoro-4-(3,6,7,8-tetrahydro-2,3,5,5a,8a,10-hexaazabenzo[cd]cyclopenta[h]azulen-9-yl)phenyl)methanol]: 10 to 100 nM. Regarding `COc1cc(F)c(C2=Nc3cn[nH]c3-c3cnn4c3N2CCC4)c(F)c1` [Compound 360, 8-(2,6-difluoro-4-methoxy-phenyl)-3,4,7,9,13,14-hexazatetracyclo[7.6.1.02,6.013,16]hexadeca-1(16),2(6),4,7,14-pentaene], the IC50 was 10 to 100 nM.

With `c1ccc(C2=Nc3cn[nH]c3-c3cnn4c3N2CCC4)cc1` [Compound 361, 8-phenyl-3,4,7,9,13,14-hexazatetracyclo[7.6.1.02,6.013,16]hexadeca-1(16),2(6),4,7,14-pentaene], the IC50 was in the range of 10 to 100 nM. The same measure for `Fc1ccccc1C1=Nc2cn[nH]c2-c2cnn3c2N1CCC3` [Compound 362, 9-(2-fluorophenyl)-3,6,7,8-tetrahydro-2,3,5,5a,8a,10-hexaazabenzo[cd]cyclopenta[h]azulene]: 10 to 100 nM. The same measure for `Fc1ccccc1C1=Nc2cn[nH]c2-c2cnn3c2N1CCCC3` [Compound 363, 10-(2-fluorophenyl)-6,7,8,9-tetrahydro-3H-2,3,5,5a,9a,11-hexaazadicyclopenta[b,kl]heptalene]: 100 to 1000 nM. Consider `Clc1ccccc1C1=Nc2cn[nH]c2-c2cnn3c2N1CCCC3` [Compound 364, 10-(2-chlorophenyl)-6,7,8,9-tetrahydro-3H-2,3,5,5a,9a,11-hexaazadicyclopenta[b,kl]heptalene], for which the IC50 fell in the range of 100 to 1000 nM. The same measure for `Fc1cccnc1C1=Nc2cn[nH]c2-c2cnn3c2N1CCCC3` [Compound 365, 10-(3-fluoropyridin-2-yl)-6,7,8,9-tetrahydro-3H-2,3,5,5a,9a,11-hexaazadicyclopenta[b,kl]heptalene]: above 1000 nM; for `Cc1nn2c3c1-c1[nH]ncc1N=C(c1c(F)cccc1F)N3CCC2` [Compound 366, 9-(2,6-difluorophenyl)-4-methyl-3,6,7,8-tetrahydro-2,3,5,5a,8a,10-hexaazabenzo[cd]cyclopenta[h]azulene]: 100 to 1000 nM; for `Fc1ccc(F)c(C2=Nc3cn[nH]c3-c3cnn4c3N2CCC4)c1F` [Compound 367, 8-(2,3,6-trifluorophenyl)-3,4,7,9,13,14-hexazatetracyclo[7.6.1.02,6.013,16]hexadeca-1(16),2(6),4,7,14-pentaene]: 10 to 100 nM.

Turning to `Fc1ccc(Cl)c(F)c1C1=Nc2cn[nH]c2-c2cnn3c2N1CCC3` [Compound 368, 8-(3-chloro-2,6-difluoro-phenyl)-3,4,7,9,13,14-hexazatetracyclo[7.6.1.02,6.013,16]hexadeca-1(16),2(6),4,7,14-pentaene], the IC50 was below 10 nM.

For `Fc1cccc(F)c1C1=Nc2cn[nH]c2-n2ncc3c2N1CCC3` [Compound 369, 9-(2,6-difluorophenyl)-3,6,7,8-tetrahydro-2,3,3b,4,8a,10-hexaazabenzo[cd]cyclopenta[h]azulene], the IC50 is 100 to 1000 nM.
